Reference: ChEMBL document CHEMBL1133086, “Design, synthesis, and X-ray crystal structure of a potent dual inhibitor of thymidylate synthase and dihydrofolate reductase as an antitumor agent” (J Med Chem, 2000)

What was measured:
Thymidylate synthase [1] = molecular target: Thymidylate synthase (Rattus norvegicus, UniProt P45352); test: Inhibitory concentration against isolated rat thymidylate synthase
Thymidylate synthase [2] = molecular target: T1, Thymidylate synthase (Homo sapiens, UniProt P04818); test: Inhibitory concentration against isolated Thymidylate synthase
T1 sequence (P04818 whole entry): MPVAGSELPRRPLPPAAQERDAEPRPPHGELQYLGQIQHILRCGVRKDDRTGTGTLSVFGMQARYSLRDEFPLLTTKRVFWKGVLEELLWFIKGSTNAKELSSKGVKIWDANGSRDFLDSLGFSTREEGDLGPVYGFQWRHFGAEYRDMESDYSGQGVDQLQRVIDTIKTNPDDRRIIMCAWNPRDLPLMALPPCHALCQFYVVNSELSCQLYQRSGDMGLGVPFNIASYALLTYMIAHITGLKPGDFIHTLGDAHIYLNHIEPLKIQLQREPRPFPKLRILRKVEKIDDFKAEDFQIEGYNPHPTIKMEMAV

Thymidylate synthase [3] = molecular target: T2, Thymidylate synthase (Lactobacillus casei, UniProt P00469); test: Inhibitory concentration against isolated Lactobacillus casei Thymidylate synthase; parameters: species or system Lacticaseibacillus casei
T2 sequence (P00469 whole entry): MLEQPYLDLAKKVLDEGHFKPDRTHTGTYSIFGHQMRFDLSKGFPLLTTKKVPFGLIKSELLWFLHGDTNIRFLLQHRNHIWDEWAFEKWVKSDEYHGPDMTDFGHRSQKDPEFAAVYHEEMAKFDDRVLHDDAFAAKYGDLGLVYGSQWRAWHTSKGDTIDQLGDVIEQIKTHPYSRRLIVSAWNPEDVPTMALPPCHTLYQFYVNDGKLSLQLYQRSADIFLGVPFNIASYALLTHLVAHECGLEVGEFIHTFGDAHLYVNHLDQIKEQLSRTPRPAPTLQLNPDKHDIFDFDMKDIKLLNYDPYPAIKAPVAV

Dihydrofolate reductase [4] = molecular target: T3, Dihydrofolate reductase (Homo sapiens, UniProt P00374); test: Inhibitory concentration against isolated human Dihydrofolate reductase
T3 sequence (P00374 whole entry): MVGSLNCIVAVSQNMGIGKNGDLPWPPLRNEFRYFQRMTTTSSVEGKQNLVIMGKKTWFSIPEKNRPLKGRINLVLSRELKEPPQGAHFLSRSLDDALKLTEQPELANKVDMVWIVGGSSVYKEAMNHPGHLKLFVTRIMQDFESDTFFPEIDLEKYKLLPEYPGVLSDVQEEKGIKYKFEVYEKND

Dihydrofolate reductase [5] = molecular target: T4, Dihydrofolate reductase (Pneumocystis carinii, UniProt P16184)
T4 sequence (P16184 whole entry): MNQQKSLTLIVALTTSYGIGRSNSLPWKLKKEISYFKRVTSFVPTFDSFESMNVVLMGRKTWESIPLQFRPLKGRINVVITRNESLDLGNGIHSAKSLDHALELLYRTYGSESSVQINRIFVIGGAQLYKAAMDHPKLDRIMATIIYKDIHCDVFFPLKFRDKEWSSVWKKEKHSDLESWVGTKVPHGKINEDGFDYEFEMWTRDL
Description: Inhibitory concentration against isolated Pneumocystis carinii DHFR (Dihydrofolate reductase)

Dihydrofolate reductase [6] = molecular target: Dihydrofolate reductase (Escherichia coli, UniProt P0ABQ4)
Chain of Dihydrofolate reductase (Escherichia coli, UniProt P0ABQ4) (P0ABQ4 whole entry): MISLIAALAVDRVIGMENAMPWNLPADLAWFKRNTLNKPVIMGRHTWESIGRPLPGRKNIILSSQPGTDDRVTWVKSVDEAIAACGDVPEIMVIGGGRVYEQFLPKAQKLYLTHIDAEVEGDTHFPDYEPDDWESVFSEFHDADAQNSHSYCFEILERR
Description: Inhibitory concentration against isolated Escherichia coli Dihydrofolate reductase

[7] = molecular target: T5, Bifunctional dihydrofolate reductase-thymidylate synthase (Toxoplasma gondii, UniProt Q07422)
T5 sequence (Q07422 whole entry): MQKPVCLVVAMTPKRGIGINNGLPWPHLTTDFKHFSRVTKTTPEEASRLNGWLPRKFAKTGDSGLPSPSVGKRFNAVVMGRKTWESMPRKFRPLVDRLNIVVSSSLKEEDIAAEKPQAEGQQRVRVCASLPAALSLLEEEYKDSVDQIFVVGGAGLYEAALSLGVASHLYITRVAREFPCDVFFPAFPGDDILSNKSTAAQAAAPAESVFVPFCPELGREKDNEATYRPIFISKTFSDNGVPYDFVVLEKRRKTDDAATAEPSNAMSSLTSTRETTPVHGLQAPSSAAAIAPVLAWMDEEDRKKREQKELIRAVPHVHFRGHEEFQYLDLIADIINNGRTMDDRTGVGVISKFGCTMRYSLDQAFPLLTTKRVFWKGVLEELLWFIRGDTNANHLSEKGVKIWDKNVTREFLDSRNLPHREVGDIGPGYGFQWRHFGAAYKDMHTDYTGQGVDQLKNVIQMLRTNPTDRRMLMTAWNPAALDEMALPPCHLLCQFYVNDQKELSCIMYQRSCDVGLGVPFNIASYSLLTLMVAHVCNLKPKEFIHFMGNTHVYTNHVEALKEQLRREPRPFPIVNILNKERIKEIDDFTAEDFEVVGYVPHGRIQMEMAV
Description: Inhibitory concentration against isolated Toxoplasma gondii DHFR (dihydrofolate reductase)

Dihydrofolate reductase [8] = molecular target: Dihydrofolate reductase (Lactobacillus casei, UniProt P00381); test: Inhibitory concentration against isolated Lactobacillus casei Dihydrofolate reductase; parameters: species or system Lacticaseibacillus casei
Chain of Dihydrofolate reductase (Lactobacillus casei, UniProt P00381) (P00381 whole entry): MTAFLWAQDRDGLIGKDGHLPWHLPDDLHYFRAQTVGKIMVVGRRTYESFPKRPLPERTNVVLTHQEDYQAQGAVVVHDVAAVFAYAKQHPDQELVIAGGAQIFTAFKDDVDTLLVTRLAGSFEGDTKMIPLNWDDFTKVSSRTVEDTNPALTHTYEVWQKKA

Thymidylate synthase [9] = molecular target: Thymidylate synthase (Escherichia coli, UniProt C3SWJ7); test: Inhibitory concentration against isolated Escherichia coli Thymidylate synthase
Chain of Thymidylate synthase (Escherichia coli, UniProt C3SWJ7) (C3SWJ7 whole entry): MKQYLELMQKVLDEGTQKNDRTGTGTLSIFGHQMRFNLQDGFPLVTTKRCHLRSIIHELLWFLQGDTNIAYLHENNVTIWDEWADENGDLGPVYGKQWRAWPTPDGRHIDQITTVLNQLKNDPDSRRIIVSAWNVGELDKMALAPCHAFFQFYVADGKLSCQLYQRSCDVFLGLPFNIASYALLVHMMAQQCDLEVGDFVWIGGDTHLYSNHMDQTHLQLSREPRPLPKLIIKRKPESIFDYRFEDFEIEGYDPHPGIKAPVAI

CCRF-CEM [10] = test: Concentration required to inhibit growth against CCRF-CEM cell; type: functional, cell-based; conditions: Homo sapiens
carcinoma cell line [11] = test: Tested for their inhibition of growth of CCRF-CEM human leukemia on carcinoma cell lines.; type: functional, cell-based
Homo sapiens [12] = organism: Homo sapiens; test: Ratio between Vmax and Km for compound as substrate for recombinant human folyl-poly-glutamate synthase (FPGS); type: ADME; conditions: in vivo
Homo sapiens [13] = organism: Homo sapiens; test: The maximum velocity at which substrate concentration is stabilised is determined for compound as substrate for recombinant human folyl-poly-glutamate synthase (FPGS); type: ADME; conditions: in vivo
carcinoma cell line [14] = test: Tested for their inhibition of growth of FaDu head on carcinoma cell lines.; type: functional, cell-based; conditions: Homo sapiens
CCRF-CEM [15] = test: Tested for their growth inhibition of CCRF-CEM human leukemia subline resistant as a result of decrease polyglutamylation.; type: functional, cell-based
CCRF-CEM [16] = test: Growth inhibition of human T-lymphoblastic leukemia cell line CCRF-CEM in culture; type: functional; conditions: read-out: ED50 (the source's name)
FaDu = test: Growth inhibition of human squamous cell carcinoma FaDu in culture; type: functional; conditions: read-out: ED50 (the source's name)
Thymidylate synthase [17] = molecular target: T1, Thymidylate synthase; test: Inhibitory concentration against human Thymidylate synthase(TS)
[18] = molecular target: T6, Bifunctional purine biosynthesis protein ATIC (Homo sapiens, UniProt P31939); test: Inhibition against […]-4-carboxamide ribonucleotide formyltransferase (AICAR formyltransferase); inactive
T6 sequence (P31939 whole entry): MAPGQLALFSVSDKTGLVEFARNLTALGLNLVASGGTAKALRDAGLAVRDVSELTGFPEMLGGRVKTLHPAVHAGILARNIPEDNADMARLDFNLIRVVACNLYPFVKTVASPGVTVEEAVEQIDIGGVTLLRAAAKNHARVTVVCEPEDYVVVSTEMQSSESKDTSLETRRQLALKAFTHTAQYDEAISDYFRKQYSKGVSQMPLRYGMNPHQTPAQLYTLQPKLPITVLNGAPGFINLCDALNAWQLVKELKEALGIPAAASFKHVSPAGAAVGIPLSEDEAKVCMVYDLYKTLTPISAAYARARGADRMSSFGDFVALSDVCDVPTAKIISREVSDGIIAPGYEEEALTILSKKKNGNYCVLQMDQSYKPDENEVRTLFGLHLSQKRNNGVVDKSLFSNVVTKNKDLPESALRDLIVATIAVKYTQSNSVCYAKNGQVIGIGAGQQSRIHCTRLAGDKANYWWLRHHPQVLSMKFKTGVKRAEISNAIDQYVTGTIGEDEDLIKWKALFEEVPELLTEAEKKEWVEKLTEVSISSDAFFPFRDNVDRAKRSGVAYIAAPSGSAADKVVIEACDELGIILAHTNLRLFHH

[19] = molecular target: Trifunctional purine biosynthetic protein adenosine-3 (Homo sapiens, UniProt P22102); test: Inhibition against GAR transformylase; In active
Chain of Trifunctional purine biosynthetic protein adenosine-3 (P22102 whole entry): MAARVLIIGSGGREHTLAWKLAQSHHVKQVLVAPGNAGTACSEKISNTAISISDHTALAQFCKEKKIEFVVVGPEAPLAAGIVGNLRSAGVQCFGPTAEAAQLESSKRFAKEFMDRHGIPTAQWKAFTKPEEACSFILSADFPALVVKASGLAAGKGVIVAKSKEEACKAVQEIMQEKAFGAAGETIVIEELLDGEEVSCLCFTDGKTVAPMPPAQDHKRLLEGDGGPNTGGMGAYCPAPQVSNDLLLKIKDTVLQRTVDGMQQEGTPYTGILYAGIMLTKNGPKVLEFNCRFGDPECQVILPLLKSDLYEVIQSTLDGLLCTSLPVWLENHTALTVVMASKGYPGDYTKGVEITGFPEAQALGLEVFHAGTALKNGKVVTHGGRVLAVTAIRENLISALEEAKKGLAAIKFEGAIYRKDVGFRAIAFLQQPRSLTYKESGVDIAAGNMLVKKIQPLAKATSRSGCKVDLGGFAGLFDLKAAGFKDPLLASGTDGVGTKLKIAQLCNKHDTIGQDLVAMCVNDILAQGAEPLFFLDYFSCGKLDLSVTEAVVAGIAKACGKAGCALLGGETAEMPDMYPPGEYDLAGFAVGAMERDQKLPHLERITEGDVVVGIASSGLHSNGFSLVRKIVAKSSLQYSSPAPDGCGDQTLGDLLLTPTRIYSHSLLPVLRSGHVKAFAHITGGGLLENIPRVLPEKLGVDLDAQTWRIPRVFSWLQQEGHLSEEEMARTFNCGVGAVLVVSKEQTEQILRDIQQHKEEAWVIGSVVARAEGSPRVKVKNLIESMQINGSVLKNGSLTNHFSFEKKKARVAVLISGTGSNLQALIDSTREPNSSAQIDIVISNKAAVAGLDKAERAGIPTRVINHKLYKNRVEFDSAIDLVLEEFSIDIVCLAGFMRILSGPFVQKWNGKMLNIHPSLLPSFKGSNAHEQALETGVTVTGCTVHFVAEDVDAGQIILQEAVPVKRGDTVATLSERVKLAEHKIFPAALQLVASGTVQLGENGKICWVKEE

[20] = molecular target: T6, Bifunctional purine biosynthesis protein ATIC; test: Inhibition against […]-4-carboxamide ribonucleotide formyltransferase (AICAR formyltransferase); In active
Thymidylate synthase [21] = molecular target: T1, Thymidylate synthase; test: Inhibitory concentration against human TS
SF-539 = test: Cytotoxicity was tested against CNS cancer SF-539 tumor cell lines.; type: functional; conditions: Homo sapiens
NCI-H460 = test: Cytotoxicity against non small cell lung cancer NCI-H460 tumor cell lines.; type: functional; conditions: Homo sapiens
HCT-116 = test: Cytotoxicity was tested against colon cancer HCT116 tumor cell lines.; type: functional; conditions: Homo sapiens
CCRF-CEM [22] = test: Tested for their growth inhibition of CCRF-CEM human leukemia subline resistant as a result of decrease in uptake.; type: functional, cell-based
CCRF-CEM [23] = test: Tested for their growth inhibition of CCRF-CEM human leukemia subline resistant as a result of increase in wild type DHFR protein and activity.; type: functional, cell-based
NCI-H226 = test: Cytotoxicity against non small cell lung cancer NCI-H226 tumor cell lines.; type: functional; conditions: Homo sapiens
HCC 2998 = test: Cytotoxicity against colon cancer HCC2998 tumor cell lines.; type: functional; conditions: Homo sapiens
MCF7 = test: Cytotoxicity was tested against breast cancer MCF-7 tumor cell lines.; type: functional; conditions: Homo sapiens
MOLT-4 = test: Cytotoxicity against leukemia MOLT-4 tumor cell lines.; type: functional; conditions: Homo sapiens
ACHN = test: Cytotoxicity was tested against renal cancer ACHN tumor cell lines.; type: functional; conditions: Homo sapiens
[24] = substrate: Cc1nc(N)nc2[nH]cc(CCc3ccc(C(=O)N[C@@H](CCC(=O)O)C(=O)O)cc3)c12; test: (§1) Activity as substrate for recombinant human folyl-poly-glutamate synthase (FPGS).
[25] = substrate: Cc1nc(N)nc2c1c(CCc1ccc(C(=O)N[C@@H](CCC(=O)O)C(=O)O)cc1)cn2Cc1ccccc1; test: as §1

Chain of Thymidylate synthase (Rattus norvegicus, UniProt P45352) (P45352 whole entry): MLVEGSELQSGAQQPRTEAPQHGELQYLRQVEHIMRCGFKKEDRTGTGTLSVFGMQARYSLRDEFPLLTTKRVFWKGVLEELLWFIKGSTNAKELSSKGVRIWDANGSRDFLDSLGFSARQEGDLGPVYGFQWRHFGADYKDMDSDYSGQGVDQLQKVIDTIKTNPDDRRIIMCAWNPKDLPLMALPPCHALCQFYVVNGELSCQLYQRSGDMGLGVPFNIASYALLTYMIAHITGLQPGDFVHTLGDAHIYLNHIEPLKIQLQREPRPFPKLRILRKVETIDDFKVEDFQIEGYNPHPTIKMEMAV

Nc1nc2[nH]cc(CCc3ccc(C(=O)N[C@@H](CCC(=O)O)C(=O)O)cc3)c2c(=O)[nH]1 [PEMETREXED]
IC50 (Thymidylate synthase [1]): 20000 nM | IC50 (Thymidylate synthase [2]): 110 µM | IC50 (Thymidylate synthase [3]): 20 µM

Cc1cn([C@@H]2O[C@H](COP(=O)(O)O)[C@@H](O)[C@H]2O)c(=O)[nH]c1=O
IC50 (Dihydrofolate reductase [4]): 340 µM | IC50 (Dihydrofolate reductase [5]): 15 µM | IC50 (Dihydrofolate reductase [6]): 20 nM | IC50 [7]: 3.4 µM | IC50 (Dihydrofolate reductase [8]): 350 nM

Cc1nc(N)nc2c1c(CCc1ccc(C(=O)N[C@@H](CCC(=O)O)C(=O)O)cc1)cn2Cc1ccccc1
IC50 (Dihydrofolate reductase [4]): > 19 µM | IC50 (Dihydrofolate reductase [5]): > 19 µM | IC50 (Thymidylate synthase [9]): 16 µM | IC50 (Thymidylate synthase [1]): > 16000 nM | IC50 (Thymidylate synthase [2]): > 16 µM | IC50 (CCRF-CEM [10]): > 10 µM | IC50 (Dihydrofolate reductase [6]): > 19000 nM | IC50 (carcinoma cell line [11]): > 10 µM | Ratio (Homo sapiens [12]): 0.02 | Vmax (Homo sapiens [13]): 0.65 | IC50 [7]: > 19 µM | IC50 (carcinoma cell line [14]): > 20 µM | IC50 (Thymidylate synthase [3]): 0.31 µM | IC50 (Dihydrofolate reductase [8]): 19000 nM | IC50 (CCRF-CEM [15]): > 20 µM

Nc1nc(N)c2c(CNCc3ccc(C(=O)N[C@@H](CCC(=O)O)C(=O)O)cc3)coc2n1
EC50 (CCRF-CEM [16]): 30500 nM

CN(Cc1coc2nc(N)nc(N)c12)c1ccc(C(=O)N[C@@H](CCC(=O)O)C(=O)O)cc1 [FURO[2,3D]PYRIMIDINE ANTIFOLATE]
EC50 (FaDu): 55 nM | EC50 (CCRF-CEM [16]): 47 nM | IC50 (Thymidylate synthase [17]): > 200 µM | IC50 [18]: Not Active | IC50 [19]: Not Active

Nc1nc(N)c2c(CNc3ccc(C(=O)N[C@@H](CCC(=O)O)C(=O)O)cc3)coc2n1
IC50 [20]: Not Active | IC50 [19]: Not Active | IC50 (Thymidylate synthase [21]): > 200 µM

Nc1nc(N)c2nc(CNc3ccc(C(=O)N[C@@H](CCC(=O)O)C(=O)O)cc3)cnc2n1 [AMINOPTERIN]
Ratio (Homo sapiens [12]): 0.21 | Vmax (Homo sapiens [13]): 1

Cc1nc(N)nc2[nH]cc(CCc3ccc(C(=O)N[C@@H](CCC(=O)O)C(=O)O)cc3)c12
GI50 (SF-539): < 10 nM | GI50 (NCI-H460): < 10 nM | IC50 (Dihydrofolate reductase [4]): 0.8 µM | IC50 (Dihydrofolate reductase [5]): 1.2 µM | IC50 (Thymidylate synthase [9]): 2 µM | GI50 (HCT-116): 7.11 µM | EC50 (CCRF-CEM [22]): 575 nM | IC50 (Thymidylate synthase [1]): 2000 nM | IC50 (Thymidylate synthase [2]): 1 µM | EC50 (CCRF-CEM [10]): 12.5 nM | EC50 (CCRF-CEM [23]): 158 nM | GI50 (NCI-H226): 61.4 nM | EC50 (carcinoma cell line [11]): 12.5 nM | GI50 (HCC 2998): < 10 nM | Vmax (Homo sapiens [13]): 0.17 | GI50 (MCF7): 169 nM | IC50 [7]: 1.2 µM | EC50 (carcinoma cell line [14]): 7 nM | GI50 (MOLT-4): < 10 nM | IC50 (Thymidylate synthase [3]): 9 µM | IC50 (Dihydrofolate reductase [8]): 24 nM | EC50 (CCRF-CEM [15]): 18.5 nM | GI50 (ACHN): < 10 nM

Cc1nc2ccc(CN(C)c3ccc(C(=O)N[C@@H](CCC(=O)O)C(=O)O)s3)cc2c(=O)[nH]1 [RALTITREXED]
IC50 (Thymidylate synthase [1]): 900 nM | IC50 (Thymidylate synthase [3]): 8 µM

Nc1nc(N)c2c(CCc3ccc(C(=O)N[C@@H](CCC(=O)O)C(=O)O)cc3)coc2n1
EC50 (CCRF-CEM [16]): 250 nM

B1: Folylpolyglutamate synthase, mitochondrial (Homo sapiens), Q05932 (protein)
chain: MSRARSHLRAALFLAAASARGITTQVAARRGLSAWPVPQEPSMEYQDAVRMLNTLQTNAGYLEQVKRQRGDPQTQLEAMELYLARSGLQVEDLDRLNIIHVTGTKGKGSTCAFTECILRSYGLKTGFFSSPHLVQVRERIRINGQPISPELFTKYFWRLYHRLEETKDGSCVSMPPYFRFLTLMAFHVFLQEKVDLAVVEVGIGGAYDCTNIIRKPVVCGVSSLGIDHTSLLGDTVEKIAWQKGGIFKQGVPAFTVLQPEGPLAVLRDRAQQISCPLYLCPMLEALEEGGPPLTLGLEGEHQRSNAALALQLAHCWLQRQDRHGAGEPKASRPGLLWQLPLAPVFQPTSHMRLGLRNTEWPGRTQVLRRGPLTWYLDGAHTASSAQACVRWFRQALQGRERPSGGPEVRVLLFNATGDRDPAALLKLLQPCQFDYAVFCPNLTEVSSTGNADQQNFTVTLDQVLLRCLEHQQHWNHLDEEQASPDLWSAPSPEPGGSASLLLAPHPPHTCSASSLVFSCISHALQWISQGRDPIFQPPSPPKGLLTHPVAHSGASILREAAAIHVLVTGSLHLVGGVLKLLEPALSQ
Km [24]: < 1 µM | Km [25]: 37 µM
